Converted amounts (≈) assume the structure as drawn. Marks after values point to notes of the source that are not given here.
Legend:
Staphylococcus aureus = experiment: Minimum inhibitory concentration, gram positive bacteria; type: cell-based
Bacillus subtilis = experiment: as above; type: cell-based
Escheria Coli = experiment: Minimum inhibitory concentration, gram negative bacteria; type: cell-based
[1] = tested on: Bordetella bronchispetica; experiment: as above; type: cell-based
Streptococcus pyogenes [2] = conditions: gram positive; from J. Med. Chem., 44, 4137-4156 (2001); cited from earlier work
Streptococcus pneumonia [3] = conditions: gram positive; from J. Med. Chem., 44, 4137-4156 (2001); cited from earlier work
Clostridium perfringens [4] = conditions: gram positive; from J. F. Presscott, Antimicrobial Therapy in Veterinary Medicine, 3rd ed.; cited from earlier work
Enterococcus faecalis [5] = conditions: gram positive; from J. Clin. Micro., 26: 11, 2415-2420 (1988); cited from earlier work
Pasteurella multocida [6] = conditions: gram negative; from J. F. Presscott, Antimicrobial Therapy in Veterinary Medicine, 3rd ed.; cited from earlier work
Bacteroides fragilis [7] = conditions: gram negative; from J. F. Presscott, Antimicrobial Therapy in Veterinary Medicine, 3rd ed.; cited from earlier work
Streptococcus pyogenes [8] = experiment: Minimum inhibitory concentration, gram positive bacteria; type: cell-based
Streptococcus pneumonia [9] = experiment: as above; type: cell-based; conditions: Streptococcus pneumoniae
Clostridium perfringens [10] = experiment: microbe, parasite or virus in culture; type: cell-based; conditions: read-out: Minimum Inhibitory Concentration Clostridium perfringens
Enterococcus faecalis [11] = experiment: Minimum inhibitory concentration, gram positive bacteria; type: cell-based
Pasteurella multocida [12] = experiment: Minimum inhibitory concentration, gram negative bacteria; type: cell-based
Klebsiella Pneumonia = experiment: as above; type: cell-based; conditions: Klebsiella pneumoniae
Bacteroides fragilis [13] = experiment: as above; type: cell-based

| Structure (SMILES) | MIC (Staphylococcus aureus) [µg/mL] | MIC (Bacillus subtilis) [µg/mL] | MIC (Escheria Coli) [µg/mL] | MIC [1] [µg/mL] | Minimum Inhibitory Concentration Streptococcus pyogenes (Streptococcus pyogenes [2]) | Minimum Inhibitory Concentration Streptococcus pneumonia (Streptococcus pneumonia [3]) | Minimum Inhibitory Concentration Clostridium perfringens (Clostridium perfringens [4]) | Minimum Inhibitory Concentration Enterococcus faecalis (Enterococcus faecalis [5]) | Minimum Inhibitory Concentration Pasteurella multocida (Pasteurella multocida [6]) | Minimum Inhibitory Concentration Bacteroides fragilis (Bacteroides fragilis [7]) | MIC (Streptococcus pyogenes [8]) [µg/mL] | MIC (Streptococcus pneumonia [9]) [µg/mL] | MIC (Clostridium perfringens [10]) [µg/mL] | MIC (Enterococcus faecalis [11]) [µg/mL] | MIC (Pasteurella multocida [12]) [µg/mL] | MIC (Klebsiella Pneumonia) [µg/mL] | MIC (Bacteroides fragilis [13]) [µg/mL] |
| --- | --- | --- | --- | --- | --- | --- | --- | --- | --- | --- | --- | --- | --- | --- | --- | --- | --- |
| CC[C@H]1OC(=O)[C@H](C)[C@@H](O[C@H]2C[C@@](C)(OC)[C@@H](O)[C@H](C)O2)[C@H](C)[C@@H](O[C@@H]2O[C@H](C)C[C@H](N(C)C)[C@H]2O)[C@](C)(OC)C[C@@H](C)C(=O)[C@H](C)[C@@H](O)[C@]1(C)O [Clarithromycin] | < 0.25 | < 0.25 | 32 (≈ 42.8 µM) | 4 (≈ 5.35 µM) | 0.06^(1) μg/mL | 0.03^(1) μg/mL | 4* μg/mL | 2.7^(3) μg/mL | 2* μg/mL | 16* μg/mL |  |  |  |  |  |  |  |
| CC[C@H]1OC(=O)[C@H](C)[C@@H](O[C@H]2C[C@@](C)(OC)[C@@H](O)[C@H](C)O2)[C@H](C)[C@@H](O[C@@H]2O[C@H](C)C[C@H](N(C)C)[C@H]2O)[C@](C)(O)C[C@@H](C)C(=O)[C@H](C)[C@@H](O)[C@]1(C)O [Erythromycin] | 0.25 (≈ 0.341 µM) | 0.25 (≈ 0.341 µM) | 32 (≈ 43.6 µM) | 4 (≈ 5.45 µM) | 0.06^(1) μg/mL | 0.06^(1) μg/mL | 4* μg/mL | 2.7^(3) μg/mL | 4* μg/mL | >8* μg/mL |  |  |  |  |  |  |  |
| CC[C@H]1OC(=O)[C@H](C)[C@@H](OC2CC(C)(OC)C(OCCCN(C)C)C(C)O2)[C@H](C)[C@@H](OC2OC(C)CC(N(C)C)C2O)[C@](C)(OC)C[C@@H](C)C(=O)[C@H](C)[C@@H](O)[C@]1(C)O (stereo partly drawn) [Formula 2, 4″-DMAP-Clarithromycin ether] | 0.25 | 0.25 | 32 | 4 |  |  |  |  |  |  | 0.25 | 0.25 | 2 | 8 | 1 | 32 | 2 |
| CC[C@H]1OC(=O)[C@H](C)[C@@H](O[C@H]2C[C@@](C)(OC)[C@@H](O)[C@H](C)O2)[C@H](C)[C@@H](O[C@@H]2O[C@H](C)C[C@H](N(C)C)[C@H]2O)[C@](C)(O)C[C@@H](C)/C(=N\OCOCCOC)[C@H](C)[C@@H](O)[C@]1(C)O [Roxithromycin] | 0.25 (≈ 0.299 µM) | 0.25 (≈ 0.299 µM) | 32 (≈ 38.2 µM) | 1 (≈ 1.19 µM) |  |  |  |  |  |  | 0.25 (≈ 0.299 µM) | 0.25 (≈ 0.299 µM) | 2 (≈ 2.39 µM) | 8 (≈ 9.56 µM) | 1 (≈ 1.19 µM) | 32 (≈ 38.2 µM) | < 2 |

Source: patent publication US20110071096A1, “Macrolides Having Antibiotic Activity” (IDEXX Laboratories, Inc., priority 2009, published 2011)
